Results reported in patent US8883782B2, “Spiro-tetracyclic ring compounds as beta-secretase modulators and methods of use” (Amgen Inc., priority 2010, dated 2014).
Where two headings read alike, the source gives them in different places.

Experiments:
[1] = molecular target: Beta Secretase enzyme (BACE) (Homo sapiens, UniProt P56817); experiment: In vitro enzymatic BACE FRET (fluorescence resonance energy transfer) assay; type: biochemical; settings: average IC50, enzyme assay; read-out: BACE 1 FRET assay
Method in brief: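 Fluorescence read after Tris quench to neutral pH. Reaction: 50 nM fluorophore/quencher peptide substrate, 1 h, in 0.05 M acetate pH 4.2, 10% DMSO final, 100 uM genapol.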

[2] = test system: Aβ40 in conditioned medium of cells stably expressing Amyloid Precursor Protein (APP); experiment: In vitro BACE cell-based assay (Aβ40 in conditioned medium, sandwich ELISA); settings: read-out: HEK cell assay
Method in brief: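 The sandwich ELISA pairs pAb40 capture (3 h, 4 °C) with 6E10 detection (2 h, 4 °C) and a streptavidin-europium TRF read-out. Supernatants come from APP-expressing cells grown in 10% FBS DMEM.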

[3] = Homo sapiens, HEK293, average IC50, HEK cells
[4] = Homo sapiens, HEK293, average IC50

Beta Secretase enzyme (BACE), sequence (P56817 46-501, species assumed): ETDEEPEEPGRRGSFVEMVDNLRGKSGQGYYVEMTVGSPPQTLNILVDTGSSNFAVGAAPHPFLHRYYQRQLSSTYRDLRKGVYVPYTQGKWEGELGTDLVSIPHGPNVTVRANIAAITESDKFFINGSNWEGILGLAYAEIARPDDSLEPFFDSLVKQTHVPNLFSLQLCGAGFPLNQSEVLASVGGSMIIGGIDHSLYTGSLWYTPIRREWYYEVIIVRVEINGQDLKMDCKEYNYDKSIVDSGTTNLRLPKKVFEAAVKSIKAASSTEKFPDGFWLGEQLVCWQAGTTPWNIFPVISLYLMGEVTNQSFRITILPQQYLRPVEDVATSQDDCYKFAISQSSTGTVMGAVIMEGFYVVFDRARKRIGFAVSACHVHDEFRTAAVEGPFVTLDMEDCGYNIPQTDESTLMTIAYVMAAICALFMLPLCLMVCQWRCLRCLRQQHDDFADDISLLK

Compound	IC50 [1] [µM]	IC50 [2, 3] [µM]	IC50 [2, 4] [µM]	IC50 ([2]; average IC50) [µM]
NC1=N[C@@]2(CO1)c1cc(-c3cccnc3F)ccc1Oc1c2cc([C@@H]2CCCCO2)nc1F [Example 659, (5S)-1-fluoro-7-(2-fluoro-3-pyridinyl)-3-((2S)-tetrahydro-2H-pyran-2-yl)spiro[chromeno[2,3-c]pyridine-5,4′-[1,3]oxazol]-2′-amine]	0.0014	0.019	–	–
CC#Cc1cncc(-c2ccc3c(c2)[C@]2(COC(N)=N2)c2cc(C4CCOCC4)nc(F)c2O3)c1 [Example 754, (5R)-1-fluoro-7-(5-(1-propyn-1-yl)-3-pyridinyl)-3-(tetrahydro-2H-pyran-4-yl)spiro[chromeno[2,3-c]pyridine-5,4′-[1,3]oxazol]-2′-amine]	0.156	–	0.691	–
(4S)-4′-fluoro-7′-(2-fluoro-3-pyridinyl)-2′-((2R)-tetrahydro-2H-pyran-2-yl)spiro[1,3-oxazole-4,9′-xanthen]-2-amine [Example 220]	0.0016	–	–	0.0128
NC1=N[C@@]2(CS1)c1cc(-c3cccnc3F)ccc1Oc1cnc(C3CCOCC3)cc12 [Example 930, (5S)-7-(2-fluoro-3-pyridinyl)-3-(tetrahydro-2H-pyran-4-yl)spiro[chromeno[2,3-c]pyridine-5,4′-[1,3]thiazol]-2′-amine]	0.004	0.057	–	–
NC1=N[C@@]2(CO1)c1cc(-c3cccnc3F)ccc1Oc1c(F)cc(C3=CCOC3)cc12 [Example 291, (4S)-2′-(2,5-dihydro-3-furanyl)-4′-fluoro-7′-(2-fluoro-3-pyridinyl)spiro[1,3-oxazole-4,9′-xanthen]-2-amine]	0.0006	–	0.008	–
CC1(C#Cc2cc3c(cn2)Oc2ccc(-c4ccccc4)cc2[C@@]32COC(N)=N2)COC1 [Example 155, (5S)-3-((3-methyl-3-oxetanyl)ethynyl)-7-phenylspiro[chromeno[2,3-c]pyridine-5,4′-[1,3]oxazol]-2′-amine]	0.0173	–	0.173	–
CC(C)(C#N)COc1ccc2c(c1)[C@@]1(COC(N)=N1)c1cc(Br)cc(F)c1O2 [Example 442, 3-(((4S)-2-amino-7′-bromo-5′-fluorospiro[1,3-oxazole-4,9′-xanthen]-2′-yl)oxy)-2,2-dimethylpropanenitrile]	0.152	1.81	–	–
NC1=N[C@@]2(CO1)c1cc(-c3cncnc3)c(F)cc1Oc1c(F)cc(C3=CCOCC3)cc12 [Example 1038, (4S)-7′-(3,6-dihydro-2H-pyran-4-yl)-3′,5′-difluoro-2′-(5-pyrimidinyl)spiro[1,3-oxazole-4,9′-xanthen]-2-amine]	0.0004	–	0.01	–
NC1=N[C@@]2(CO1)c1cc(-c3cc(Cl)ccc3Cl)ccc1Oc1ncc(C3=CCOCC3)cc12 [Example 501, (5S)-7-(2,5-dichlorophenyl)-3-(3,6-dihydro-2H-pyran-4-yl)spiro[chromeno[2,3-b]pyridine-5,4′-[1,3]oxazol]-2′-amine]	0.0022	0.027	–	–
NC1=N[C@]2(CO1)c1cc(-c3cccnc3F)ccc1Oc1nc(F)ccc12 [Example 485, (5R)-2-fluoro-7-(2-fluoro-3-pyridinyl)spiro[chromeno[2,3-b]pyridine-5,4′-[1,3]oxazol]-2′-amine]	0.175	0.852	–	–
NC1=N[C@@]2(CS1)c1cc(-c3cccnc3)ccc1Oc1c(F)cc(N3CCOCC3)cc12 [Example 799, (4S)-4′-fluoro-2′-(4-morpholinyl)-7′-(3-pyridinyl)spiro[1,3-thiazole-4,9′-xanthen]-2-amine]	0.0015	–	0.018	–
CCC(C)CSc1cnc2c(c1)[C@]1(COC(N)=N1)c1cc(-c3cccnc3)ccc1O2 (stereo partly drawn) [Example 99, (4′S)-3-(2-methylbutylthio)-7-(pyridin-3-yl)-5′H-spiro[chromeno[2,3-b]pyridine-5,4′-oxazol]-2′-amine]	0.0173	–	0.302	–
Cc1ccnn1-c1cc(F)c2c(c1)[C@]1(COC(N)=N1)c1cc(O)ccc1O2 [Example 631, (4S)-2-amino-5′-fluoro-7′-(5-methyl-1H-pyrazol-1-yl)spiro[1,3-oxazole-4,9′-xanthen]-2′-ol]	0.0214	0.184	–	–
NC1=N[C@@]2(CO1)c1cc(-c3cncc(N4CC[C@H](F)C4)c3)ccc1Oc1cnc(Cl)cc12 [Example 428, (5S)-3-chloro-7-(5-((3S)-3-fluoro-1-pyrrolidinyl)-3-pyridinyl)spiro[chromeno[2,3-c]pyridine-5,4′-[1,3]oxazol]-2′-amine]	0.604	2.2	–	–
CC1(C#Cc2cc3c(nc2F)Oc2ccc(-c4cncc(F)c4)cc2[C@]32COC(N)=N2)COC1 [Example 906, (5R)-2-fluoro-7-(5-fluoro-3-pyridinyl)-3-((3-methyl-3-oxetanyl)ethynyl)spiro[chromeno[2,3-b]pyridine-5,4′-[1,3]oxazol]-2′-amine]	0.0542	1.49	–	–
N#Cc1cccc(COc2ccc3c(c2)[C@@]2(COC(N)=N2)c2cc(-c4cccnc4)cnc2O3)c1 [Example 984, 3-((((5S)-2′-amino-3-(3-pyridinyl)spiro[chromeno[2,3-b]pyridine-5,4′-[1,3]oxazol]-7-yl)oxy)methyl)benzonitrile]	0.0308	–	0.125	–
CC1(C#Cc2cc3c(cn2)Oc2ccc(-c4cccnc4F)cc2[C@@]32COC(N)=N2)COC1 [Example 405, (5S)-7-(2-fluoro-3-pyridinyl)-3-((3-methyl-3-oxetanyl)ethynyl)spiro[chromeno[2,3-c]pyridine-5,4′-[1,3]oxazol]-2′-amine]	0.0014	0.0111	–	–
CC(C)(C)C#Cc1ccc2c(c1)[C@@]1(COC(N)=N1)c1cc(N3CCOCC3)cnc1O2 [Example 464, (5S)-7-(3,3-dimethyl-1-butyn-1-yl)-3-(4-morpholinyl)spiro[chromeno[2,3-b]pyridine-5,4′-[1,3]oxazol]-2′-amine]	0.0128	0.069	–	–
CC(C)(O)C#Cc1cncc(-c2ccc3c(c2)[C@@]2(COC(N)=N2)c2cc(C4=CCOCC4)ncc2O3)c1 [Example 818, 4-(5-((5S)-2′-amino-3-(3,6-dihydro-2H-pyran-4-yl)spiro[chromeno[2,3-c]pyridine-5,4′-[1,3]oxazol]-7-yl)-3-pyridinyl)-2-methyl-3-butyn-2-ol]	0.0049	–	0.152	–
NC1=N[C@@]2(CO1)c1cc(-c3cnccc3F)c(F)cc1Oc1ncc(C3=CCOCC3)cc12 [Example 646, (5S)-3-(3,6-dihydro-2H-pyran-4-yl)-8-fluoro-7-(4-fluoro-3-pyridinyl)spiro[chromeno[2,3-b]pyridine-5,4′-[1,3]oxazol]-2′-amine]	0.0022	0.016	–	–
CC1(C)C[C@@H](c2cc3c(cn2)Oc2ccc(-c4cncc(F)c4)cc2[C@@]32COC(N)=N2)CCO1 [Example 380, (5S)-3-((4S)-2,2-dimethyltetrahydro-2H-pyran-4-yl)-7-(5-fluoro-3-pyridinyl)spiro[chromeno[2,3-c]pyridine-5,4′-[1,3]oxazol]-2′-amine]	0.0302	–	0.101	–
NC1=N[C@@]2(CO1)c1cc(-c3ccc(F)nc3)ccc1Oc1c(F)cc(-c3ncccn3)cc12 [Example 289, (4S)-4′-fluoro-7′-(6-fluoro-3-pyridinyl)-2′-(2-pyrimidinyl)spiro[1,3-oxazole-4,9′-xanthen]-2-amine]	0.0025	–	0.0146	–
COc1ccc2c(c1)[C@@]1(COC(N)=N1)c1cc(C3(F)CCOCC3)cc(F)c1O2 [Example 939, (4S)-4′-fluoro-2′-(4-fluorotetrahydro-2H-pyran-4-yl)-7′-methoxyspiro[1,3-oxazole-4,9′-xanthen]-2-amine]	1.71	3.56	–	–
CC1(C)CC(c2cnc3c(c2)[C@]2(CSC(N)=N2)c2cc(-c4cncnc4)ccc2O3)=CCO1 [Example 669, (5S)-3-(2,2-dimethyl-3,6-dihydro-2H-pyran-4-yl)-7-(5-pyrimidinyl)spiro[chromeno[2,3-b]pyridine-5,4′-[1,3]thiazol]-2′-amine]	0.0008	0.01	–	–
CC(C)N(C)c1cc2c(cn1)Oc1ccc(-c3cccnc3)cc1[C@@]21COC(N)=N1 [Example 435, (5S)-N~3~-methyl-N~3~-(1-methylethyl)-7-(3-pyridinyl)spiro[chromeno[2,3-c]pyridine-5,4′-[1,3]oxazole]-2′,3-diamine]	0.0056	0.0296	–	–
CC(C)CSc1cnc2c(c1)[C@]1(COC(N)=N1)c1cc(-c3cccnc3)ccc1O2 [Example 184, (5S)-3-((2-methylpropyl)sulfanyl)-7-(3-pyridinyl)spiro[chromeno[2,3-b]pyridine-5,4′-[1,3]oxazol]-2′-amine]	0.0141	–	0.294	–
N#Cc1cc(-c2ccc3c(c2)[C@@]2(COC(N)=N2)c2cc(-c4ccnc(F)c4)cnc2O3)ccc1F [Example 786, 5-((5S)-2′-amino-3-(2-fluoro-4-pyridinyl)spiro[chromeno[2,3-b]pyridine-5,4′-[1,3]oxazol]-7-yl)-2-fluorobenzonitrile]	0.0105	–	0.041	–
CC1(C#Cc2cnc3c(c2)C2(CSC(N)=N2)c2cc(-c4cccnc4F)ccc2O3)COC1 (stereo not drawn) [Example 98]	0.002	0.0046	–	–
NC1=N[C@@]2(CO1)c1cc(-c3cccnc3F)ccc1Oc1c(F)cc(N3CC4(CCCO4)C3)cc12 [Example 855, (4S)-4′-fluoro-7′-(2-fluoro-3-pyridinyl)-2′-(5-oxa-2-azaspiro[3.4]oct-2-yl)spiro[1,3-oxazole-4,9′-xanthen]-2-amine]	0.0007	0.002	–	–
COc1ccc(F)c(-c2ccc3c(c2)[C@@]2(COC(N)=N2)c2cc(N4CCOC(C)(C)C4)cnc2O3)c1 [Example 481, (5S)-3-(2,2-dimethyl-4-morpholinyl)-7-(2-fluoro-5-methoxyphenyl)spiro[chromeno[2,3-b]pyridine-5,4′-[1,3]oxazol]-2′-amine]	0.0027	0.0192	–	–
